Data: US20060173015A1, “Cyclohexyldiamines as selective alpha 1a/1d adrenoreceptor antagonists for the treatment of benign prostatic hypertrophy and lower urinary tract symptoms” (priority 2004, published 2006)

Test system: Mean Arterial Pressure (MAP)
Assay: Phenylephrine-induced MAP in an anesthetized canine model
Format: in vivo
Conditions: anesthetized dog
Procedure: In-Vivo Evaluation of α1-Adrenergic Antagonists on Prostatic Intraurethral Pressure (IUP) and Mean Arterial Pressure (MAP) in an Anesthetized Canine Model
An anesthetized dog was fitted with a balloon catheter for the measurement of changes in prostatic IUP and with a non-invasive blood pressure (NIBP) cuff for determination of MAP.
The pressor effects of challenge doses (i.v.) of the α-adrenergic agonist phenylephrine upon IUP and MAP were measured before and at various time points after a single dose (i.v.) of an α-adrenergic antagonist test compound (Compound 69) of the present invention.
Each treatment group was dosed with a test compound (0.01, 0.03, 0.1 and 0.5 mg/kg) in four separate experiments. The first challenge dose of phenylephrine was administered 30 mins prior to the test compound dose and at 30 min intervals thereafter for a total time period of 5 hrs (i.e at time minus 30 mins, time plus 30 mins, 1 hr, 1.5 hrs, 2 hrs, 2.5 hrs, 3 hrs, 3.5 hrs, 4 hrs, 4.5 hrs and 5 hrs).
The animals were fasted overnight, anesthetized with propofol (4 mg/kg IV or to effect), then intubated and anesthesia maintained using inhalation isoflurane (1-2% in oxygen at a flow rate of 2 l/min) with animals breathing spontaneously.
Blood pressure was measured non-invasively using a Critikon 8100 monitor. An infant blood pressure cuff was placed on a forelimb. Measurements were made automatically at 1-minute intervals during recording periods. […] Care was taken to accurately correlate the time of the MAP readings with the time of the phenylephrine dose. Recording periods typically lasted from 5 minutes before phenylephrine administration to 10 minutes after. The monitor was turned off between recording periods to allow the arterial blood vessels of the forelimb to recover from repeated cuff inflations.
Because of the variability of the MAP value, several values recorded during a five minute “control” period prior to the phenylephrine challenge dose were averaged to establish a mean baseline value for measuring the phenylephrine-induced change in MAP.
MAP readings also varied during the response to the phenylephrine challenge. A visual peak MAP value, seen on the monitor at about 3 minutes after the challenge dose, was recorded and used to calculate the maximum phenylephrine induced change in MAP. Additionally, MAP values were recorded at one minute intervals and curve fitted to estimate a maximum MAP value. The curve fitted maximum value was used to confirm the visual maximum value.
A test compound was administered via the cephalic vein using an appropriately sized IV catheter (Surflo, Terumo Medical Corporation or equivalent).
Prior to test compound administration, IUP and MAP responses to an individualized dose of phenylephrine (either 10 or 15 μg/kg IV, depending on the individual animal's response) was repeated 2 to 3 times to establish a baseline response. After test compound administration, the individualized phenylephrine dose was administered to each animal at 30 minute intervals over a period of 5 hours.
Data for phenylephrine-induced changes in IUP and MAP were tabulated for each treatment group and each experiment. A mean value and standard deviation for the phenylephrine-induced changes to the effect of a test compound on IUP and MAP at each dose was calculated and tabulated for each treatment group over the length of the 5.5 hour study.

COc1ccc(S(=O)(=O)N[C@H]2CC[C@@H](N3CCN(c4ccccc4OCC(F)(F)F)CC3)CC2)cc1OC [Cpd 69, 3,4-Dimethoxy-N-cis-(4-{4-[2-(2,2,2-trifluoro-ethoxy)-phenyl]-piperazin-1-yl}-cyclohexyl)-benzenesulfonamide]
MAP, normalized % of baseline (mean) (0.01 mg/kg i.v., 0 hrs (baseline)): 100%
MAP, normalized % of baseline (mean) (0.01 mg/kg i.v., 0.5 hrs after dose): 88.2%
MAP, normalized % of baseline (mean) (0.01 mg/kg i.v., 1 hrs after dose): 68.9%
MAP, normalized % of baseline (mean) (0.01 mg/kg i.v., 2 hrs after dose): 83.1%
MAP, normalized % of baseline (mean) (0.01 mg/kg i.v., 3 hrs after dose): 88.0%
MAP, normalized % of baseline (mean) (0.01 mg/kg i.v., 4 hrs after dose): 82.0%
MAP, normalized % of baseline (mean) (0.01 mg/kg i.v., 5 hrs after dose): 91.1%
MAP, normalized % of baseline (mean) (0.03 mg/kg i.v., 0 hrs (baseline)): 100%
MAP, normalized % of baseline (mean) (0.03 mg/kg i.v., 0.5 hrs after dose): 39.9%
MAP, normalized % of baseline (mean) (0.03 mg/kg i.v., 1 hrs after dose): 40.9%
MAP, normalized % of baseline (mean) (0.03 mg/kg i.v., 1.5 hrs after dose): 44.1%
MAP, normalized % of baseline (mean) (0.03 mg/kg i.v., 2 hrs after dose): 61.0%
MAP, normalized % of baseline (mean) (0.03 mg/kg i.v., 2.5 hrs after dose): 59.4%
MAP, normalized % of baseline (mean) (0.03 mg/kg i.v., 3 hrs after dose): 59.2%
MAP, normalized % of baseline (mean) (0.03 mg/kg i.v., 3.5 hrs after dose): 59.8%
MAP, normalized % of baseline (mean) (0.03 mg/kg i.v., 4 hrs after dose): 58.4%
MAP, normalized % of baseline (mean) (0.03 mg/kg i.v., 4.5 hrs after dose): 71.1%
MAP, normalized % of baseline (mean) (0.03 mg/kg i.v., 5 hrs after dose): 90.3%
MAP, normalized % of baseline (mean) (0.1 mg/kg i.v., 0 hrs (baseline)): 100%
MAP, normalized % of baseline (mean) (0.1 mg/kg i.v., 0.5 hrs after dose): 45.5%
MAP, normalized % of baseline (mean) (0.1 mg/kg i.v., 1 hrs after dose): 47.4%
MAP, normalized % of baseline (mean) (0.1 mg/kg i.v., 1.5 hrs after dose): 35.0%
MAP, normalized % of baseline (mean) (0.1 mg/kg i.v., 2 hrs after dose): 44.0%
MAP, normalized % of baseline (mean) (0.1 mg/kg i.v., 2.5 hrs after dose): 54.0%
MAP, normalized % of baseline (mean) (0.1 mg/kg i.v., 3 hrs after dose): 51.3%
MAP, normalized % of baseline (mean) (0.1 mg/kg i.v., 3.5 hrs after dose): 56.4%
MAP, normalized % of baseline (mean) (0.1 mg/kg i.v., 4 hrs after dose): 47.0%
MAP, normalized % of baseline (mean) (0.1 mg/kg i.v., 4.5 hrs after dose): 73.3%
MAP, normalized % of baseline (mean) (0.1 mg/kg i.v., 5 hrs after dose): 84.3%
MAP, normalized % of baseline (mean) (0.5 mg/kg i.v., 0 hrs (baseline)): 100%
MAP, normalized % of baseline (mean) (0.5 mg/kg i.v., 0.5 hrs after dose): 27.6%
MAP, normalized % of baseline (mean) (0.5 mg/kg i.v., 1 hrs after dose): 18.4%
MAP, normalized % of baseline (mean) (0.5 mg/kg i.v., 1.5 hrs after dose): 16.0%
MAP, normalized % of baseline (mean) (0.5 mg/kg i.v., 2 hrs after dose): 18.3%
MAP, normalized % of baseline (mean) (0.5 mg/kg i.v., 2.5 hrs after dose): 19.4%
MAP, normalized % of baseline (mean) (0.5 mg/kg i.v., 3 hrs after dose): 23.8%
MAP, normalized % of baseline (mean) (0.5 mg/kg i.v., 3.5 hrs after dose): 19.2%
MAP, normalized % of baseline (mean) (0.5 mg/kg i.v., 4 hrs after dose): 32.3%
MAP, normalized % of baseline (mean) (0.5 mg/kg i.v., 4.5 hrs after dose): 32.1%
MAP, normalized % of baseline (mean) (0.5 mg/kg i.v., 5 hrs after dose): 29.4%
